Columns and labels:
[1] = system: Chlamydia Pneumoniae; details: reported; cited from earlier work
[2] = system: severe acute lower back pain; details: short-term oral treatment; effect not seen three or so days after onset; cited from earlier work
[3] = system: cervical/lumbosacral disc disease; experiment: Clinical injection/arthroscopic application of azithromycin with liposome in disc disease; type: in vivo, human; details: two occasions, applied with a liposome and another anti-inflammatory at surgical arthroscopy of the intervertebral disc
Excerpt: The therapy of the present invention was also observed to be effective in clinical treatment of cervical/lumbosacral disc disease.

[4] = system: phospholipase A2; details: VanBebeke et al, 1994; cited from earlier work

## Cc1c(F)c(N2CCNC(C)C2)cc2c1c(=O)c(C(=O)O)cn2C1CC1 (centres unmarked) [Grepafloxacin]
[1]
  potency against Chlamydia Pneumoniae: good potency

## CC[C@H]1OC(=O)[C@H](C)[C@@H](O[C@H]2C[C@@](C)(OC)[C@@H](O)[C@H](C)O2)[C@H](C)[C@@H](O[C@@H]2O[C@H](C)C[C@H](N(C)C)[C@H]2O)[C@](C)(O)C[C@@H](C)CN(C)[C@H](C)[C@@H](O)[C@]1(C)O [azithromycin, azithromycin dihydrate]
[2]
  response of severe acute lower back pain: respond dramatically
[3]
  relief of the patients' severe pain: good and immediate relief
[4]
  effect on neurotoxic phospholipase A2: direct effect in mitigating the effects

## CO[C@H]1/C=C/O[C@@]2(C)Oc3c(C)c(O)c4c(O)c(c(/C=N/N5CCN(C)CC5)c(O)c4c3C2=O)NC(=O)/C(C)=C\C=C\[C@H](C)[C@H](O)[C@@H](C)[C@@H](O)[C@@H](C)[C@H](OC(C)=O)[C@@H]1C [rifanpin]
[1]
  potency against Chlamydia Pneumoniae: good potency
